ChEMBL document CHEMBL2429746, “Cell-based medicinal chemistry optimization of high throughput screening hits for orally active antimalarials. Part 2: hits from SoftFocus kinase and other libraries” (J Med Chem, 2013)
Blank lines part the entries; values can stand above or below the compound they belong to.

Columns and labels:
[1] = system: Plasmodium falciparum; experiment: Antimalarial activity against Plasmodium falciparum infected in NOD SCID mouse after 4 days by Peters test; assay type: functional; conditions: 96 h
[2] = system: Plasmodium falciparum; experiment: Antimalarial activity against blood stage of Plasmodium falciparum Dd2 assessed as parasite viability after 72 hrs by SYBR green dye-based assay; assay type: functional, organism-based; conditions: Dd2, 72 h
[3] = system: Plasmodium falciparum; experiment: Antimalarial activity against blood stage of Plasmodium falciparum 3D7 assessed as parasite viability after 72 hrs by SYBR green dye-based assay; assay type: functional, organism-based; conditions: 3D7, 72 h
[4] = system: Plasmodium falciparum; experiment: Antimalarial activity against Plasmodium falciparum infected in po dosed SCID mouse assessed as reduction in parasitaemia by Peters test; assay type: functional
[5] = Half life in Sprague-Dawley rat at 5 mg/kg, po; assay type: ADME, organism-based; parameters: dose 5 mg/kg, route oral; conditions: in vivo

Compound: O=C(O)CCc1cccc2c1B(O)OC2
ED90 [1]: 0.6 mg/kg

Compound: NC1=Nc2ccc(Cl)cc2C1(O)c1ccccc1 (stereo not given)
IC50 [2]: 507 nM
IC50 [3]: 216 nM

half-life [5]: 8.7 h
Compound: COc1ccc(-c2cc(-c3ccc(S(C)(=O)=O)cc3)cnc2N)cn1
ED90 [4]: 3.6 mg/kg
